Values joined by “and” are separate entries in the source; they are usually repeats but may differ in a detail not shown here. Equal values may be shown once.
Target: Cytochrome P450 3A4 (Homo sapiens, UniProt P08684)
Test: For testosterone hydroxylase activity the final microsomal protein concentration was 0.5 mg/mL, the substrate concentration was 50 uM and the LC-MS internal standard was D7-labeled 6beta -hydroxytestosterone.

Sequence of Cytochrome P450 3A4 (P08684 whole entry): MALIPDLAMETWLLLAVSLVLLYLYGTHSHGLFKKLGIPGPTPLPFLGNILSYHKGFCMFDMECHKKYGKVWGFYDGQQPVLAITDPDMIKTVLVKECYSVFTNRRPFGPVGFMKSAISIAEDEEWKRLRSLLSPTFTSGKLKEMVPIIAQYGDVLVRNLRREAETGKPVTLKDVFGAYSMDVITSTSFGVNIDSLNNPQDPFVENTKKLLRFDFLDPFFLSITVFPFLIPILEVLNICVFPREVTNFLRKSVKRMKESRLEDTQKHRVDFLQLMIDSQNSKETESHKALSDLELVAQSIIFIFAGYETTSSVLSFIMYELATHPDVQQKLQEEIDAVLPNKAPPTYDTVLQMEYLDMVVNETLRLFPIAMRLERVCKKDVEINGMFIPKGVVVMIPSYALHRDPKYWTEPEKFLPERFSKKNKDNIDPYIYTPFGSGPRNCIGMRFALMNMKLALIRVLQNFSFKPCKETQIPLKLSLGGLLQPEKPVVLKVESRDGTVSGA

**Q.** `CC(C)c1nc(CN(C)C(=O)NC2(C(=O)N[C@H](CC[C@H](Cc3ccccc3)NC(=O)OCc3cncs3)Cc3ccccc3)CCNCC2)cs1` was tested. Which IC50 did it give?
**A.** 0.15 µM and 0.34 µM

Source: ChEMBL document CHEMBL3638722, “Inhibitors of cytochrome P450” (2015)
